According to PMC8721105, “Novel Trypanocidal Inhibitors that Block Glycosome Biogenesis by Targeting PEX3–PEX19 Interaction” (Frontiers in Cell and Developmental Biology, 2021):
Several values for one entry are separate records, joined by “and”; a condition that tells them apart may be missing. Equal values may be shown once. Entries after “also recorded” stand apart in the source; their conditions may differ. Read-outs that look alike come from different tables or passages of the source.

Key:
[1] = molecular target: T1, GST-His (Schistosoma japonicum, UniProt P08515); assay: NMR saturation transfer difference (STD) with GST-His control; format: binding; details: 10 μM protein, 300 µM ligand
T1 construct: made in house; host or cells: E. coli BL21(DE3)
Procedure: (§1) NMR saturation transfer difference (STD) experiments ([Mayer and Meyer, 1999]) were carried out on a Bruker AVIII 600-MHz spectrometer equipped with a cryoprobe and a SampleJet auto sampler. One-dimensional (1D) and STD spectra were acquired at 298 K. Compounds were dissolved in DMSO-d6 to a final concentration of 50 mM. STD experiments with GST-TbPEX3, TbPEX19-His, and GST-His were performed in PBS (pH 7.4), 10% D2O at a protein concentration of 10 μM, and a ligand concentration of 300 µM. Saturation time and interscan delay within STD experiments were set to 2 and 2.5 s, respectively.

[2] = ref ChemBridge, cited from earlier work; for Hacc (hydrogen bond acceptor) / Hdon (hydrogen bond donor): provided by the compound library supplier; for LogSw: supplier data
[3] = test system: T. brucei BSF427; assay: T. brucei cell viability, resazurin-based assay; parameters: species or system Trypanosoma brucei; details: BSF427, 3 days of incubation, resazurin, read-out: T. brucei toxicity (EC50)
Procedure: (§2) BSF strain Lister 427 (termed hereafter as BSF427) and cell line 90-13 (stably expressing Tet repressor) were used in this study. BSF cells were grown in HMI-11 medium and maintained in logarithmic phase [below 2 × 10^6 cells/ml as described in [Kalel et al. (2019)]]. Genomically integrated stable transfections were performed with NotI-linearized plasmid constructs (pGN1-TbPEX11), which integrate into the spacer region of the ribosomal RNA repeat locus in the genome of cell line 90-13, and the clones were selected using blasticidin as described previously ([Kalel et al., 2015]). Expression of TbPEX11-GFP was confirmed with fluorescence microscopy following induction tests (data not shown) with a serial dilution of tetracycline, and minimal concentration (5 ng/ml) of tetracycline was used to achieve expression of the protein in more than 80% of the cells.
T. brucei BSF427 and compound dilutions were mixed in 1 : 1 (v/v) ratio to total volume of 200 μl, to reach final concentrations of 2 × 10^3 cells/ml and 0.19–100 μM of inhibitors, in quadruplicates in 96-well plates. Culture medium with no cells was used as negative control and cultures without presence of compounds as positive control representing normal rate of cell growth. Cells were grown at 37°C in an incubator with humidified air containing 5% CO2 for 3 days. Cell viabilities were measured quantitatively using resazurin dye, by adding 25-µl resazurin (0.1 mg/ml in HBSS) to each well, and the mixture incubated for 6 h in the incubator. Fluorescence emission was detected at 570 and 585 nm after excitation at 530 nm, and fluorescence at 570 nm was subtracted from 585 nm. The inhibition curves were fitted with normalized fluorescence signal (in percentage) against concentration of compounds in Log10 scale using GraphPad Prism, and best fit was used for EC50 estimation. Chemical structures were drawn with ChemDraw 20.0.

[4] = molecular target: TbPEX3–TbPEX19 interaction (Trypanosoma brucei brucei, UniProt Q383Q3); assay: AlphaScreen TbPEX3–TbPEX19 inhibitor screening and dose response; format: binding
Procedure: The above solutions were prepared in the reaction buffer [0.5% BSA v/v, 0.05% Tween 80 v/v, 0.2 mM DTT, PBS (pH7.4)] on the day of assay, diluting the compounds from 1 mM stocks in DMSO. Compounds were incubated with the proteins for 30 min at room temperature (RT). Five microliters of AlphaScreen Nickel-chelate acceptor beads (cat. no. 6760619C, PerkinElmer®) and AlphaScreen Glutathione donor beads (cat. no. 6765300, PerkinElmer®) were distributed to the mixture consecutively, with a 15-min interval. The complete 25-μl reaction solutions were incubated for 45 min at RT in the dark, and Alpha signals were captured with Cytation 5 plate reader (BioTek®) with the gain value set at 180. Schematic representation of the experiment setup of the high-throughput screening assays was prepared with BioRender.com.
Following initial hit selection, 10 μM of drugs were tested with GST-His (54 nM) and TbPEX19/TbPEX3 (5 nM) in smaller scale, and the level of signal was normalized (in %) and compared.

[5] = test system: T. brucei bloodstream form parasites; assay: Immunofluorescence microscopy of glycosomal aldolase localization; format: cell-based, Trypanosoma brucei; details: 24 h treatment; for Mislocalization (% of No. of cells) of aldolase: cultures with 50% of the growth rate of DMSO control
Procedure: BSF 90-13 cells with genomically integrated PEX11-GFP were induced with 5 ng/ml of tetracycline and cultured overnight to initiate stable expression of PEX11-GFP. BSF427- and PEX11-GFP–expressing cells were treated for 24 h with 100 μM, 50 and 25 μM of each of the inhibitor, and DMSO was used as control. Compound-treated cultures with growth rates of about 50% compared to the DMSO control were harvested and stained for immunofluorescence and statistical analysis. Cells were fixed with 4% paraformaldehyde in PBS containing 250 mM sucrose for 20 min. Fixed cells were immobilized on adhesive slide (StarFrost®) pre-coated with 10% (v/v) of poly-L-lysine (Sigma-Aldrich®) in water after 1-h incubation at RT. Cells were permeabilized with 0.1% (v/v) Triton X-100 in PBS (pH7.4) for 15 min and blocked in buffer D [PBS supplemented with 1% (w/v) BSA and 0.25% (v/v) Tween 20] for 1 h. Anti-TbAldolase primary antibody was used at 1:500 dilution in buffer D for 1.5 h incubation. After five washes in PBS for 30 min, samples were treated with Goat anti-rabbit secondary antibody (1:200, v/v, Alexa Fluor™ 594). Samples were washed, dried, and mounted with Mowiol containing 4′,6-diamidino-2-phenylindole (DAPI). Immuno-stained cells were visualized with Zeiss Elyra microscopy. Pictures of stack 3 (of 5), rotation 1 (of 3), and phase 5 (of 5) were chosen for all control and compound-treated samples.

[6] = Cytotoxicity test on HepG2 cells; details: human, HepG2 cells, Human cell cytotoxicity (EC50), HepG2, serial dilutions of up to 200 µM
[7] = test system: GST-TbPEX3d44; assay: NMR saturation transfer difference (STD) with GST-TbPEX3; format: binding, Trypanosoma brucei; details: for STD NMR effect with GST-TbPEX3: 10 μM protein, 300 µM ligand; for Target protein (NMR analysis): protein assigned as target, GST-TbPEX3, TbPEX19-His and GST-His tested
Procedure: as §1

[8] = test system: BSF427 cells; assay: Digitonin fractionation of compound-treated BSF cells; details: 24 h treatment; 0.025 μg of digitonin/μg of total protein
Procedure: Pellets were resuspended in 420 μl of homogenization buffer and distributed evenly into four tubes each with 100 μl (4 μg protein). […] The mixture was incubated for 2 min at 37°C, vortexed for 10 s, and centrifuged (16,000 g) at 4°C for 15 min. 100 μl from the supernatant (solubilized fractions) was taken for Western blot analysis. Remaining pellet fractions were washed by adding homogenization buffer up to 125 μl and centrifuged again, supernatants were discarded, and pellets were resuspended in 100 μl for Western blotting.

[9] = test system: PEX11-GFP–expressing BSF cells; assay: Immunofluorescence of PEX11-GFP–expressing BSF cells; format: cell-based, Trypanosoma brucei; details: 24 h treatment
Procedure: as §2
BSF 90-13 cells with genomically integrated PEX11-GFP were induced with 5 ng/ml of tetracycline and cultured overnight to initiate stable expression of PEX11-GFP. BSF427- and PEX11-GFP–expressing cells were treated for 24 h with 100 μM, 50 and 25 μM of each of the inhibitor, and DMSO was used as control. Compound-treated cultures with growth rates of about 50% compared to the DMSO control were harvested and stained for immunofluorescence and statistical analysis. […]

[10] = test system: TbPEX19-His; assay: NMR saturation transfer difference (STD) with TbPEX19-His; format: binding, Trypanosoma brucei; details: 10 μM protein, 300 µM ligand
Procedure: as §1

[11] = test system: HepG2 cells; assay: Cytotoxicity test on HepG2 cells; details: read-out: Human cell cytotoxicity (EC50); HepG2, serial dilutions of up to 200 µM
[12] = molecular target: Biotin-TbPEX5pep; assay: ELISA binding of GST-TbPEX14 and Biotin-TbPEX5pep; parameters: species or system Trypanosoma brucei; details: read-out: KD of GST-TbPEX14 (residue1-84) and Biotin-TbPEX5pep
Procedure: ELISA with TbPEX14–TbPEX5 was used as an independent assay to confirm compound specificity by examining the compound activity on TbPEX14–TbPEX5 interaction. TbPEX14–TbPEX5 assays were performed similarly with following changes. GST-TbPEX14_1-84 was coated, and biotinylated TbPEX5 peptide (Biotin-Aca-Aca-[…]) was used as analyte to a final concentration of 500 nM. Bound PEX5 was detected using streptavidin-conjugated alkaline phosphatase [1:2,000 v/v in PBS, 0.05% v/v Tween 20 (pH 7.4), buffer D, Promega] and p-nitrophenylphosphate (PNPP, Thermo Fisher Scientific) as a substrate, reactions stopped with 3 M NaOH and absorbance read at 405 nm.

T1 sequence (P08515 whole entry): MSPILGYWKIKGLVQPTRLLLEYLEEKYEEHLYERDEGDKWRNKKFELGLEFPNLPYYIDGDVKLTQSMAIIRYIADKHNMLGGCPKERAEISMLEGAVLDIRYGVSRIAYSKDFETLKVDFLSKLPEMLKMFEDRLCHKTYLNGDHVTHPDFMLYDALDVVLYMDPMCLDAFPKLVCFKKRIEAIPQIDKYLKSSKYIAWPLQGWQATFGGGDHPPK
Chain of TbPEX3–TbPEX19 interaction (Q383Q3 entry or part of it, other chains not shown): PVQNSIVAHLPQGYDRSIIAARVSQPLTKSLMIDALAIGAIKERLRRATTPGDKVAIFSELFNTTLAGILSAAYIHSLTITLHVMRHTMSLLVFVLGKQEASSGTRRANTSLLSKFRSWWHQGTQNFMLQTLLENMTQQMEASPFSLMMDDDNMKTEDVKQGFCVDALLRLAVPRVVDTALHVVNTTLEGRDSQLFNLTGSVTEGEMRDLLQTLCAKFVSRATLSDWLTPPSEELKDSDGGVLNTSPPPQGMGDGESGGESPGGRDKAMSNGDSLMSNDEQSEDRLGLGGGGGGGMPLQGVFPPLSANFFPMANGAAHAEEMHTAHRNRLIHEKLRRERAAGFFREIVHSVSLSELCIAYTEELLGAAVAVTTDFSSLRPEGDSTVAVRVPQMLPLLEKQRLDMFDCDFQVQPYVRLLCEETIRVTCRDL

| Molecule | STD NMR effect with GST-His control [1] | Hacc (hydrogen bond acceptor) [2] | Hdon (hydrogen bond donor) [2] | LogSw [2] | EC50 [3] | EC50 ([3]; Trypanosoma brucei, 72 h) | IC50 [4] | Aldolase labeling phenotype (in words) [5] | EC50 [6] | STD NMR effect with GST-TbPEX3 [7] | Target protein (NMR analysis) [7] | Release of glycosomal matrix proteins (HK, gGAPDH) on digitonin fractionation (in words) [8] | PEX11-GFP and matrix protein localization (in words) [9] | Mislocalization (% of No. of cells) of aldolase [5] | STD NMR effect with TbPEX19-His [10] | EC50 [11] | Kd [12] |
| --- | --- | --- | --- | --- | --- | --- | --- | --- | --- | --- | --- | --- | --- | --- | --- | --- | --- |
| c1ccc(-c2ncc(CNCCOc3cccc4cccnc34)cn2)nc1 [Compound 1, N-[(2-pyridin-2-ylpyrimidin-5-yl)methyl]-2-(quinolin-8-yloxy)ethanamine] | not to GST-His; also recorded: not with TbPEX19 or GST | 6 | 1 | -2.69 | 33 µM | 32.7 µM | 1 µM | diffused pattern of aldolase labeling | > 200 µM | significant STD effects; also recorded: strong STD signal | TbPEX3 | – | – | – | – | – | – |
| COCC1CCCN(S(=O)(=O)N2CCCN(Cc3cccc(F)c3)CC2)C1 (stereo not shown) [Compound 2, 1-(3-fluorobenzyl)-4-{[3-(methoxymethyl)piperidin-1-yl]sulfonyl}-1,4-diazepane] | not to GST-His; also recorded: not with TbPEX19 or GST | 4 | 0 | -1.59 | 27 µM | 26.9 µM | 37.5 µM | mislocalization of aldolase to the cytosol | > 200 µM | significant STD effects; also recorded: strong STD signal | TbPEX3 | mislocalization of the matrix protein into cytosol | partly mislocalized to cytosol | ~21% and 21.2% | – | – | – |
| CCn1c2c(c3cc(C(=O)N4CCc5[nH]cnc5C4c4cccnc4)ccc31)CCCC2=O (stereo not shown) [Compound 3, 9-ethyl-6-[(4-pyridin-3-yl-1,4,6,7-tetrahydro-5H-imidazo[4,5-c]pyridin-5-yl)carbonyl]-2,3,4,9-tetrahydro-1H-carbazol-1-one] | weak line-broadening | 4 | 1 | -1.77 | – | 38 µM | 14.3 µM | partial mislocalization of aldolase to the cytosol | 84.4 µM | strong line-broadening | – | mislocalization of the matrix protein into cytosol | mislocalization of both PEX11 and matrix proteins | ~27% and 27.5% | notable STD signal | 84 µM | – |
| Cn1ccnc1CNCCOc1cccc2cccnc12 [Compound 4, N-[(1-methyl-1H-imidazol-2-yl)methyl]-2-(quinolin-8-yloxy)ethanamine] | not to GST-His; also recorded: not with TbPEX19 or GST | 4 | 1 | -1.26 | 71 µM | 70.7 µM | 0.5 µM | patches of stained aldolase | > 200 µM | significant STD effects; also recorded: strong STD signal | TbPEX3 | – | – | ~14% and 14.3% and ~15% | – | – | – |
| GST-TbPEX14: GST-tagged TbPEX14 residues 1-84 (protein, left off: GST, end not stated, kept) MSLLLSGVVDDGKSKPEVEHTHSEREKRVSNAVEFLLDSRVRRTPTSSKVHFLKSKGLSAEEICEAFTKVGQPKTLNEIKRILS | – | – | – | – | – | – | – | – | – | – | – | – | – | – | – | – | 0.52 ± 0.13 µM |
